# Earlier results, collected in patent publication US20080089848A1, “INTRATHECAL INJECTION OF MICROBUBBLES” (priority 2006, published 2008).
# How the values were obtained:
# [1] = test system: middle cerebral artery occlusion
# vasospasm following SAH = details: collagen devices, canines with autologous blood in the cisterna magna
# vasospasm [2] = test system: vasospasm
# vasospasm [3] = test system: vasospasm; remark: listed apart in the source
# traumatic brain injury = details: parental administration no more than 12 hours post-trauma
# [4] = test system: beta amyloid protein; dopaminergic neurons
# [5] = test system: glutamate-induced nitric oxide related neurotoxicity
# [6] = test system: primary murine cerebellar granule neurons
# [7] = systemic administration, patients with intracranial hypertension
# [8] = rat MCA occlusion, retrograde cerebral vein infusion
# [9] = intracisternal injection, patients, Hamada 2003
molecule,measurement,setting,value
CCNCc1cc(C(C)(C)C)c(O)c(C(C)(C)C)c1 [LY231617],BBB permeability,[1]; [8],significant improvement
same,local cerebral blood flow,[1]; [8],significant increase
same,ischemic damage,[1]; seven hours post-MCA occlusion,significantly reduced
hirudin,reduction in the diameter of the basilar artery,vasospasm following SAH,lowered the reduction in the diameter of the basilar artery
urokinase,safety and prevention of vasospasms,"vasospasm [2]; human, in vivo",safe and reasonable means of preventing vasospasms
same,occurrence of symptomatic vasospasm,vasospasm [2]; [9],significantly reduced
same,rate of permanent neurological deficits,vasospasm [2]; [9],lower rate
NCCN(CCN)/[N+]([O-])=N/O [diethylene-triamine/NO],vasospasm in rabbits,"vasospasm [3]; implants in the cisterna magna, Pradilla",prevented vasospasm
same,vasospasm in the rabbit basilar artery,"vasospasm [3]; implants in the subarachnoid space, Gabikian",prevented vasospasm
[Mg+2] [magnesium],brain magnesium homeostasis,traumatic brain injury,restores brain magnesium homeostasis
same,motor and cognitive outcome,traumatic brain injury,profoundly improves both motor and cognitive outcome
VEGF,neuroprotection in AD,[4]; Yang,provides neuroprotection in AD by binding to beta amyloid protein
same,neuroprotection in PD,"[4]; low dose, Yasuhara",neuroprotective towards dopaminergic neurons
CN(c1nc2ccccc2s1)C1CCN(C[C@H](O)COc2ccc(F)c(F)c2)CC1 [lubeluzole],glutamate-induced nitric oxide related neurotoxicity,[5],inhibits
TNF-α,concentration that markedly reduces the capacity of IGF-I to promote survival,[6],≥ 10 pg/mL
O=S(=O)([O-])[O-].[Mg+2] [magnesium sulfate],CSF ionized magnesium concentration,[7],failed to increase
same,increase of plasma magnesium levels,[7],> 50%
